Results: patent publication US20180298024A1, “CORTISTATIN ANALOGS AND USES THEREOF” (President and Fellows of Harvard College, priority 2015, published 2018)

Assays:
LTK = target: T1, LTK (Homo sapiens, UniProt P29376); experiment: 33PanQinase radiometric kinase assay, LTK; type: biochemical
T1 construct: purchased ProQinase; host or cells: Sf9 insect cells or E. coli
Experimental: A radiometric protein kinase assay (33PanQinase Activity Assay) was used for measuring the kinase activity of the 320 protein kinases. All kinase assays were performed in 96-well FlashPlates™ from Perkin Elmer (Boston, Mass., USA) in a 50 μl reaction volume. The reaction cocktail was pipetted in 4 steps in the following order: • 1. 10 μl of non-radioactive ATP solution (in H2O) • 2. 25 μl of assay buffer/[γ-33P]-ATP mixture • 3. 5 μl of test sample in 10% DMSO • 4. 10 μl of enzyme/substrate mixture
All PKC assays (except the PKC-mu and the PKC-nu assay) additionally contained 1 mM CaCl2, 4 mM EDTA, 5 μg/ml phosphatidylserine and 1 μg/ml 1,2-dioleyl-glycerol.
The CAMKID, CAMK2A, CAMK2B, CAMK2D, CAMK4, CAMKK1, CAMKK2, DAPK2, EEF2K, MYLK, MYLK2 and MYLK3 assays additionally contained 1 μg/ml Calmodulin and 0.5 mM CaCl2). The PRKG1 and PRKG2 assays additionally contained 1 μM cGMP. The DNA-PK assay additionally contained 2.5 μg/ml DNA. […] Incorporation of 33Pi (counting of “cpm”) was determined with a microplate scintillation counter (Microbeta, Wallac). […]
For each kinase, the median value of the cpm of three wells was defined as “low control” (n=3). This value reflects unspecific binding of radioactivity to the plate in the absence of a protein kinase but in the presence of the substrate. […] The residual activity (in %) for each compounds well was calculated by using the following formula: […]

K562 = experiment: Half-maximal growth inhibition (GI50), K562; type: cell-based; conditions: Homo sapiens, 240 h, CML, BCR-Abl, read-out: GI50 (nM), day 10
Experimental: Compounds A, B, C, D, and F were tested against various cell lines to probe their broad utility against cancer. Cortistatin A (CA) was also tested against the cell lines in a head to head fashion.

T1 sequence (P29376 17-864): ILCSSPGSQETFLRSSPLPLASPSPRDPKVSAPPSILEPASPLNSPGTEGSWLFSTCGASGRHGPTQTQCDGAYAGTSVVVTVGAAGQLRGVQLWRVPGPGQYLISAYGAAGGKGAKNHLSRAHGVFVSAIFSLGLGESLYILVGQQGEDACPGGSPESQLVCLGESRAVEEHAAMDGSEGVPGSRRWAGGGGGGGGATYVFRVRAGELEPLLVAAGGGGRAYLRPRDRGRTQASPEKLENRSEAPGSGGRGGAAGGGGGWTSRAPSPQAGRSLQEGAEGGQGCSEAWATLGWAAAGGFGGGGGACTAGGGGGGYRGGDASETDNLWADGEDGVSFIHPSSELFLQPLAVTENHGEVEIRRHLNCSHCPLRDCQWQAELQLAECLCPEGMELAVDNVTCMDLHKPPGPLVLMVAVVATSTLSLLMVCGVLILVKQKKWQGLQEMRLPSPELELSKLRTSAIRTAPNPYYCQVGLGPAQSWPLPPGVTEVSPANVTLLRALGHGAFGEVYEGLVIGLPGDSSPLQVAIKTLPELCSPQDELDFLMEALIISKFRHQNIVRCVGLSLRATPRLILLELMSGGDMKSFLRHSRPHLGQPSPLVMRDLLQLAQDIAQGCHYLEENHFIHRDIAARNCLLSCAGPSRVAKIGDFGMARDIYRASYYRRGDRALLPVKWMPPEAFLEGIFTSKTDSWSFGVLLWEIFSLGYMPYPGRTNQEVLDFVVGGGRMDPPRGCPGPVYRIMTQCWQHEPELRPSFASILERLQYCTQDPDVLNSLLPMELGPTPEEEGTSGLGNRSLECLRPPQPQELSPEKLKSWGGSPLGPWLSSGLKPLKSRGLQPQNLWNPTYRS

Row | SMILES | inhibition at 1 µM (LTK; 1 μM, 2 replicates, read-out: average percent inhibition of LTK) | inhibition of LTK upon retesting (LTK; up to 10 μM) | GI50 (K562)
1 | C[C@]12CC=C3C=C4CC[C@@H](O)C[C@]45CC[C@]3(O5)[C@@H]1CC[C@@H]2c1ccc2ccncc2c1 [Compound A, (3S,3aR,9R,10aR,12aS,12bR)-3-(isoquinolin-7-yl)-3a-methyl-1,2,3,3a,4,7,8,9,10,11,12,12b-dodecahydro-10a,12a-epoxybenzo[4,5]cyclohepta[1,2-e]inden-9-ol] | > 50% | not inhibited | 
2 | C[C@]12CC=C3C=C4CC[C@@H](N5C[C@H](O)[C@@H](O)C5)C[C@]45CC[C@]3(O5)[C@@H]1CC[C@@H]2c1ccc2ccncc2c1 [Compound D] |  |  | > 1000 nM
